Assay results taken from patent publication US8450456B2, “Activating peptide of the synthesis of aquaporins and cosmetic and/or pharmaceutical composition containing it” (ISP Investments Inc., priority 2007, dated 2013).
Ends that are not written are not given here.

Columns and labels:
[1] = system: normal human keratinocytes; test: Protective effect against osmotic shock caused by sorbitol, viability test by MTT; assay type: cell-based; conditions: sorbitol 250 mM 24 hours, vs non-treated cells
Description: The aim of this study is to determine the protective effect of the peptide SEQ ID no4 with respect to normal human keratinocytes subjected to an osmotic shock caused by sorbitol. The evaluation of the cellular state is then carried out by a viability test by MTT.
Normal human keratinocytes in culture were placed in the presence of the peptide SEQ ID no4 at 0.5%, 1% and 3% from a mother solution at 50 ppm, 24 hours before and during the osmotic shock. The hypertonic culture conditions were realized by adding sorbitol at 250 mM to the culture medium for 24 hours. Non-treated controls are carried out.
Cellular viability tests were then carried out by the MTT technique. The MTT agent (3-[4,5-dimethylthiazol-2-yl]-2,5-diphenyltetrazolium bromide) is used to evaluate the cellular viability. The keratinocytes are incubated in a solution containing 0.1 mg/ml MTT (3-[4,5-dimethylthiazol-2-yl]-2,5-diphenyltetrazolium bromide). This compound is absorbed by the living cells, then metabolized by the mitochondrial enzymes (succinate dehydrogenase) in a blue-violet compound, formazan, which is present in the form of insoluble violet crystals in aqueous medium.
The formazan crystals are solubilized in DMSO. They produce an absorbance (O.D.) proportional to the number of living cells present in the sample. Measurements of absorbance at 540 nm are then carried out. […]

aquaporin 3 = test: Expression of aquaporin 3 by immunofluorescence in samples of skin ex vivo; assay type: cell-based, human; conditions: 1% solution of a mother solution at 50 ppm applied topically, 24 hours or 48 hours (0.05 ppm); upper layers of the epidermis; vs non-treated control
Description: The aim of this study is to determine the influence of the peptide SEQ ID no5 on the expression of aquaporin 3 in samples of skin ex vivo.
Protocol: Samples of human skin are cultured at the air/liquid interface. A 1% solution of a mother solution at 50 ppm of peptide SEQ ID no4 is applied topically, then the samples are incubated for 24 hours or 48 hours.
These skin samples are then fixed with formaldehyde then enclosed in paraffin. Sections of 2 to 3 μm are then realized. The immunolabeling is carried out after different stages of washing and incubation of these sections. The immunolabeling is carried out by means of a specific polyclonal antibody of aquaporin 3 (anti-aquaporin 3 (C-18): goat polyclonal, sc-9885, Santa Cruz, dilution 1/100th), then a secondary antibody, coupled to a fluorescent marker (alexa-fluor 488 donkey anti-goat Ig G, Molecular Probes, dilution 1/1000th). The skin sections are then examined by epifluorescence microscope (Nikon Eclipse E600 microscope).

[2] = system: Biopsies of human skin relieved of their stratum corneum; test: Protective effect against induced cutaneous dehydration (tape stripping), ex vivo skin biopsies, H&E histology; assay type: cell-based; conditions: 1% solution of a mother solution at 50 ppm, 24 hours, stripped ex vivo human skin
Description: The aim of this study is to determine the protective effect of the peptide SEQ ID no5 with respect to ex vivo epidermis cultures subjected to a stress by an induced cutaneous dehydration.
Biopsies of human skin are relieved of their stratum corneum by stripping by means of an adhesive tape (tape stripping) then held in culture ex vivo, treated with a 1% solution of a mother solution at 50 ppm of peptide SEQ ID no5 for 24 hours. The absence of the stratum corneum induces a high dehydration. Hematoxylin-eosin (H&E) histological sections and stains allow the quality of the cutaneous structures to be evaluated.

claudin-1 = test: Expression of claudin-1 by immunofluorescence on sections of human skin; assay type: cell-based; conditions: 1% solution of a mother solution at 50 ppm applied topically, 24 hours (0.05 ppm); in particular the upper layers of the epidermis
From the text: (§1) The aim of this study is to determine the influence of the peptide SEQ ID no 5 on the expression of claudins and of keratin K10. Claudins are the principal transmembrane proteins of the intercellular adhesion structures known as tight-junction, which play a part in the cellular communication and in epidermal cohesion. Keratin K10 is a specific keratin of the differentiated epidermal layers (stratum granulosum) and is involved in the barrier function of the skin. The quantity of protein was evaluated by immunofluorescence on sections of human skin.
(§2) Protocol: Samples of human skin are cultured at the air/liquid interface. A 1% solution of a mother solution at 50 ppm of peptide SEQ ID no5 is applied topically, then the samples are incubated for 24 hours.
(§3) These skin samples are then fixed with formaldehyde, then enclosed in paraffin. Sections of 2 to 3 μm are then realized. The immunolabeling is carried out after different stages of washing and of incubation of these sections.
The immunolabeling of claudin-1 is carried out by means of a specific antibody of claudin-1 (claudin-1 antibody: rabbit polyclonal, ref: Ab15098, Abcam, dilution 1/200th), then a secondary antibody, coupled with a fluorescent marker (alexa Fluor 488 donkey anti-rabbit IgG, A21206, Molecular Probes, 1/1000th).
(§4) The skin sections are then examined by epifluorescence microscope (Nikon Eclipse E600 microscope).

keratin K10 = test: Expression of keratin K10 by immunofluorescence on sections of human skin; assay type: cell-based; conditions: 1% solution of a mother solution at 50 ppm applied topically, 24 hours (0.05 ppm); in particular the upper layers of the epidermis
From the text: as §1, §2, §3
The immunolabeling of keratin 10 is carried out by means of a specific antibody of keratin 10 (antibody K10: mouse monoclonal, ref: LHP1, Novocastra, dilution 1/50th), then a secondary antibody, coupled to a fluorescent marker (alexa Fluor 488 donkey anti-mouse IgG, A21202, Molecular Probes, 1/1000th).
as §4

Row | Substance | viability of cells subjected to the osmotic shock (dose dependence) ([1]; peptide at 0.5%, 1% and 3% of a mother solution at 50 ppm) | increase of viability of cells subjected to the osmotic shock ([1]; peptide at 3% of a mother solution at 50 ppm, 24 hours before and during shock) | aquaporin 3 immunofluorescence (aquaporin 3) | appearance of the keratinocytes of the basal layer (regeneration) [2] | signs of cellular stress and preservation of cutaneous structures (H&E sections) ([2]; vs non-treated biopsies) | claudin-1 immunofluorescence (claudin-1) | keratin K10 immunofluorescence (keratin K10)
1 | Asn-Pro-Ala-Arg (NPAR) [SEQ ID no4] | increase in the viability, dependent on dose | 12% | stronger fluorescence | – | – | – | –
2 | Asn-Pro-Ala-Arg-NH2 (NPAR-NH2) [SEQ ID no5] | – | – | – | regenerating effect | distinct reduction to the signs of cellular stress and a better preservation of the cutaneous structures | stronger fluorescence | stronger fluorescence
